The test system of one series is HPBALL. Briefly: Antiproliferative activity against human HPBALL cells assessed as inhibition of cell growth incubated for 72 hrs by celltiter-glo assay. The class given is functional, cell-based.
Series [1] is described as follows: Metabolic stability in human liver microsomes assessed as half life measured upto 60 mins in presence of NADPH regenerating system LC-MS analysis. Background: Microsomes from liver hold many membrane-bound enzymes, among them those of drug oxidation.
Series [2] is described as follows: AUClast in mouse at 50 mg/kg, po by LC/MS/MS analysis. Conditions: in vivo.
Series [3] is described as follows: Half life in mouse at 50 mg/kg, po by LC/MS/MS analysis. Conditions: in vivo.
Series [4] can be described thus: Tmax in Balb/c mouse at 50 mg/kg, po measured upto 6 hrs by LC-MS/MS analysis. The class given is ADME, organism-based. Conditions: in vivo.
A short description of series [5]: Half life in Balb/c mouse at 50 mg/kg, po measured upto 6 hrs by LC-MS/MS analysis. Conditions: in vivo.
A further series in a line: in vivo. Conditions: Balb/c, mouse, po, 50 mg/kg.
The target in series [6] is T1, Protein deacetylase HDAC6 (Homo sapiens, UniProt Q9UBN7).
T1 sequence (Q9UBN7 whole entry): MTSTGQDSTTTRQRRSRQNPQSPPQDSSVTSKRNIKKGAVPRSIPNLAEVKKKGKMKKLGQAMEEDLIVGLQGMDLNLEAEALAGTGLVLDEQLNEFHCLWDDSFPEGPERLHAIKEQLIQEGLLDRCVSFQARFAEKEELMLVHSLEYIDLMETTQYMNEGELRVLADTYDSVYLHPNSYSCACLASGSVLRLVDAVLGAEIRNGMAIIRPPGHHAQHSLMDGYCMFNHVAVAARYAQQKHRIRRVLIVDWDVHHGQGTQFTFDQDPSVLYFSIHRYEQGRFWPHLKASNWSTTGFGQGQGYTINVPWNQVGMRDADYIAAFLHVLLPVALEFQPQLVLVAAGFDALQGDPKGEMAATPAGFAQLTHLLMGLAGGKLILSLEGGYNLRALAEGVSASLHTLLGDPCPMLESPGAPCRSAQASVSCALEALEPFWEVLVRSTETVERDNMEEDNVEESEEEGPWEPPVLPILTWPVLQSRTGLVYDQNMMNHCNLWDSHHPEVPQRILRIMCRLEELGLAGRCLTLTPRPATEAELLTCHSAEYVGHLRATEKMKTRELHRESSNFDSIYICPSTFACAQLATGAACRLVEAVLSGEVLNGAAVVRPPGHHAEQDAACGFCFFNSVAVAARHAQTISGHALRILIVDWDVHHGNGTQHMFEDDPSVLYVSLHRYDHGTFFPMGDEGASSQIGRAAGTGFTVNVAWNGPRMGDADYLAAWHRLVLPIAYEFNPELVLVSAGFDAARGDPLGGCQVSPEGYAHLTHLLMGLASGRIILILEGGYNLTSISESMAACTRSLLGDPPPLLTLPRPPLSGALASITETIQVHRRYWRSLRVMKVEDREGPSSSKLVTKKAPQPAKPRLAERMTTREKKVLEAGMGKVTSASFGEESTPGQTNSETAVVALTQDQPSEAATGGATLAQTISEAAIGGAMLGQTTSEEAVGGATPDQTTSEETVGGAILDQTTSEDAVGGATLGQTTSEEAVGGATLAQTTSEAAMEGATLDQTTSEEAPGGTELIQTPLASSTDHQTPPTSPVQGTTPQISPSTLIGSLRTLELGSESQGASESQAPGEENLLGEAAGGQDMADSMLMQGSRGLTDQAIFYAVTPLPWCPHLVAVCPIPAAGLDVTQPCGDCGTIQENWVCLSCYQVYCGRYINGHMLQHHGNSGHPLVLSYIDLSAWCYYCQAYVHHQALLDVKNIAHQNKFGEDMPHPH
Put plainly: Inhibition of human recombinant HDAC6 using RHKKAc as fluorogenic substrate incubated for 90 mins by fluorescence based analysis.

Another series addresses Histone deacetylase 4 (Homo sapiens, UniProt P56524).
Another series concerns the target T2, Histone deacetylase 8 (Homo sapiens, UniProt Q9BY41).
T2 sequence (Q9BY41 whole entry): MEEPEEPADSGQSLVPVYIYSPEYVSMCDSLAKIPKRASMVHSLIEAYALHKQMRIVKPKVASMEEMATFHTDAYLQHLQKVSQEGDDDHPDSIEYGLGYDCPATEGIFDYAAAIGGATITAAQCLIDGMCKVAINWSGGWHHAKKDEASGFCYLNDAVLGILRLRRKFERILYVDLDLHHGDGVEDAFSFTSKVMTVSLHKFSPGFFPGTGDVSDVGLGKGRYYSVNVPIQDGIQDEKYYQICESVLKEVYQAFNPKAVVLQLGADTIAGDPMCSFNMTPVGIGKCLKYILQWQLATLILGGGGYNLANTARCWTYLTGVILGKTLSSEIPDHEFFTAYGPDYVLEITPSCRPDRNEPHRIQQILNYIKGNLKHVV

The nature of series [7]: Ratio of drug concentration in human blood to plasma. The class given is ADME, cell-free.
The next series relates to K562. Put plainly: cells. The series is classed as functional, cell-based. Conditions: Homo sapiens, K562, 72 h.
For a further series, the system named is HL-60. Put plainly: cells. Conditions: Homo sapiens, HL-60, 72 h.
Series [8] deals with Histone deacetylase 3/Nuclear receptor corepressor 2 (HDAC3/NCoR2) (Homo sapiens, UniProt O15379). Briefly: Inhibition of human recombinant Human HDAC3/NCOR2 using RHKKAc as fluorogenic substrate incubated for 90 mins by fluorescence based analysis. The series is classed as protein-complex assay.
Sequence of Histone deacetylase 3/Nuclear receptor corepressor 2 (HDAC3/NCoR2) (O15379 whole entry): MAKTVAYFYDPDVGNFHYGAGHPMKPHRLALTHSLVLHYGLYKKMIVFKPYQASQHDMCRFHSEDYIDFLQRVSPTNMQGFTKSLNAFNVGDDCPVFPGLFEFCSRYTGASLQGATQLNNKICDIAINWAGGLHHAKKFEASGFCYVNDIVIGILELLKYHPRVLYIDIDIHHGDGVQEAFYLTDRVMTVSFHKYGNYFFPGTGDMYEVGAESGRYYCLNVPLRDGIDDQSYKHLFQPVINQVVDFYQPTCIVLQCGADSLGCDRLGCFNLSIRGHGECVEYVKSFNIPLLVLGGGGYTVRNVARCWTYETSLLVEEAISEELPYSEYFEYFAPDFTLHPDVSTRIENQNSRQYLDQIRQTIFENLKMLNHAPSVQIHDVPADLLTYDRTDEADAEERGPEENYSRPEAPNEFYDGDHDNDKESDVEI
Sequence of Histone deacetylase 3/Nuclear receptor corepressor 2 (HDAC3/NCoR2) (Q9Y618 whole entry, further chain): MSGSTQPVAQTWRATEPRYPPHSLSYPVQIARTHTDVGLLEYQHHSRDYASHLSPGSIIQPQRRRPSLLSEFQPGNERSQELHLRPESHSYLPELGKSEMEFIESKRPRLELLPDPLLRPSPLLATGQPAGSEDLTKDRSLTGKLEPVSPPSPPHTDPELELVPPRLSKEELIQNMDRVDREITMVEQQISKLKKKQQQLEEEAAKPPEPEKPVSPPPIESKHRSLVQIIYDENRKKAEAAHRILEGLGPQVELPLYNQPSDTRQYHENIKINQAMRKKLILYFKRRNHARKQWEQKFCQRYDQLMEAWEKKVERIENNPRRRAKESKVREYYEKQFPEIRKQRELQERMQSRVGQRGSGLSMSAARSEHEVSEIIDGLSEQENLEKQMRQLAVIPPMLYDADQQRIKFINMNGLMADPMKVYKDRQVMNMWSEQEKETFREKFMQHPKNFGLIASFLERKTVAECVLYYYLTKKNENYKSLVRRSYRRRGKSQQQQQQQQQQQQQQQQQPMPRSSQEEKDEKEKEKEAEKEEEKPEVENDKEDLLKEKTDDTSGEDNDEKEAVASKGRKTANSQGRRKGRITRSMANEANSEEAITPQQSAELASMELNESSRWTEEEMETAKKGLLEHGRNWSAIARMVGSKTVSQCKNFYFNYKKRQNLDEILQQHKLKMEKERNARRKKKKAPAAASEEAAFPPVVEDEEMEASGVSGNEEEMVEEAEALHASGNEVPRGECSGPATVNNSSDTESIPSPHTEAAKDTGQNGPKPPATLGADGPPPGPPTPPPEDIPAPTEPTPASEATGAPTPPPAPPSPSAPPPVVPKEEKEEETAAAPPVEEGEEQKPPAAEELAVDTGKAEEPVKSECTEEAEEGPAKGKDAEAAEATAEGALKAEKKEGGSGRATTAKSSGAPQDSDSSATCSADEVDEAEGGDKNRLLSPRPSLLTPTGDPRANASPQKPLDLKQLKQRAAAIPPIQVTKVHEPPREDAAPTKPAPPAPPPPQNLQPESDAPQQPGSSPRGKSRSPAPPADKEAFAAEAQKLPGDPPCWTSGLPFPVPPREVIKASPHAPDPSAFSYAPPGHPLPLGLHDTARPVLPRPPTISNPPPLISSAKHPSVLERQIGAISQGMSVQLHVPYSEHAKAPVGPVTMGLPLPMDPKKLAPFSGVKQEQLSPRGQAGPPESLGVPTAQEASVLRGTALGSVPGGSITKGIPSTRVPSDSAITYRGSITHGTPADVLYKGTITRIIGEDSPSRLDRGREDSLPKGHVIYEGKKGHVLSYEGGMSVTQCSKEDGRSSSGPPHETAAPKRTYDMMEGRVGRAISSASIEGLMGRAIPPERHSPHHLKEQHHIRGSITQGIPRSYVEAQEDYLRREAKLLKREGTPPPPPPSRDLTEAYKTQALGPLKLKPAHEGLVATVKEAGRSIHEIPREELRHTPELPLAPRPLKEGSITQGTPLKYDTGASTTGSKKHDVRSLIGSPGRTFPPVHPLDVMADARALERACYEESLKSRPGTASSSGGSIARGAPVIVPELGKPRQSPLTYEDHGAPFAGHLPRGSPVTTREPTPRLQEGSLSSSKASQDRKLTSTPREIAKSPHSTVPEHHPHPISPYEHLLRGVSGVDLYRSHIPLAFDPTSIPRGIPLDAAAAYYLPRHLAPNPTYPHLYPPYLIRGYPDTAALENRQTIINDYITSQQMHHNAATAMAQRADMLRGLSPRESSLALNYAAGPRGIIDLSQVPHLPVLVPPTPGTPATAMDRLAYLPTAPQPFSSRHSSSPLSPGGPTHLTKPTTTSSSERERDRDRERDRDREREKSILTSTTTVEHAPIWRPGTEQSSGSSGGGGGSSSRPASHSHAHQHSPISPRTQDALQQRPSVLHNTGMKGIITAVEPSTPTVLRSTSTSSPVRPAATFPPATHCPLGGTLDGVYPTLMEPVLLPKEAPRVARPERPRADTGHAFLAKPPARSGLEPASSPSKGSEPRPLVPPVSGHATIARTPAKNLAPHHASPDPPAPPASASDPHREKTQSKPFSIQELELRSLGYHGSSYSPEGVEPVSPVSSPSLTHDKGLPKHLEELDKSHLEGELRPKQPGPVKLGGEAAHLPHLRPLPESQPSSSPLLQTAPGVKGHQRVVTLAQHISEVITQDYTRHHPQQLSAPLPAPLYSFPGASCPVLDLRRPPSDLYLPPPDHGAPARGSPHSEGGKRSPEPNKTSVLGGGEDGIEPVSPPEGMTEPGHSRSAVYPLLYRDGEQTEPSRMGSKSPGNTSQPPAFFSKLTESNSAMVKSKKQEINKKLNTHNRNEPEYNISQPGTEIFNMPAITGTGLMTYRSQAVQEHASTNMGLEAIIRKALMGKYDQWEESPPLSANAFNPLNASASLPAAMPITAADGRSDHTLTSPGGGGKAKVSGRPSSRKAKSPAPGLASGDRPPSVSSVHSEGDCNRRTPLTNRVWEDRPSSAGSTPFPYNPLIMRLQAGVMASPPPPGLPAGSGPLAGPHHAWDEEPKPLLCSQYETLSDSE
For a further series, the target named is T3, Histone deacetylase 11 (Homo sapiens, UniProt Q96DB2).
T3 sequence (Q96DB2 whole entry): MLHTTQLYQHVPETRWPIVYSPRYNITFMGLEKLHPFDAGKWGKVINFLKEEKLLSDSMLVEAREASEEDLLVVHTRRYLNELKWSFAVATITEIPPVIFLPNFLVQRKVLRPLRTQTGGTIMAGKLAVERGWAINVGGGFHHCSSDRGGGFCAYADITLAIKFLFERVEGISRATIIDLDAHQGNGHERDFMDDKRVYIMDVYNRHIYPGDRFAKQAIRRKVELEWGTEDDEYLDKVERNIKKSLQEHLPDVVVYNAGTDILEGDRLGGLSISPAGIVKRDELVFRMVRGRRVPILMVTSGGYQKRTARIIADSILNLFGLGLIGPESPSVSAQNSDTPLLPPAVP

A further series deals with Histone deacetylase 1 (Homo sapiens, UniProt Q13547).
Sequence of Histone deacetylase 1 (Q13547 whole entry): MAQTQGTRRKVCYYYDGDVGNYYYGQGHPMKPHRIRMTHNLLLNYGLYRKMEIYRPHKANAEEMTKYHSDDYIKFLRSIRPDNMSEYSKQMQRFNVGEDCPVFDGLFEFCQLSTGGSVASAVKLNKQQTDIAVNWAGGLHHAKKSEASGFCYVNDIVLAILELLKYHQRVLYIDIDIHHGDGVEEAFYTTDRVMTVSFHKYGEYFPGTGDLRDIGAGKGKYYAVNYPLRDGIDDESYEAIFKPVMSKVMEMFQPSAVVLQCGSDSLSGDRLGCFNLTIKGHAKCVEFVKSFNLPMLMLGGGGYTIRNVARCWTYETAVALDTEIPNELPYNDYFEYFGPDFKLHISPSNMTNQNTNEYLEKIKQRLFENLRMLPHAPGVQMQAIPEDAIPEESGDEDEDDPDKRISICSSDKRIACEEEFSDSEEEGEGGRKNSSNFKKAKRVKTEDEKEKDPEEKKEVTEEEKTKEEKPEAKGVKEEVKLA

Sequence of Histone deacetylase 4 (P56524 whole entry): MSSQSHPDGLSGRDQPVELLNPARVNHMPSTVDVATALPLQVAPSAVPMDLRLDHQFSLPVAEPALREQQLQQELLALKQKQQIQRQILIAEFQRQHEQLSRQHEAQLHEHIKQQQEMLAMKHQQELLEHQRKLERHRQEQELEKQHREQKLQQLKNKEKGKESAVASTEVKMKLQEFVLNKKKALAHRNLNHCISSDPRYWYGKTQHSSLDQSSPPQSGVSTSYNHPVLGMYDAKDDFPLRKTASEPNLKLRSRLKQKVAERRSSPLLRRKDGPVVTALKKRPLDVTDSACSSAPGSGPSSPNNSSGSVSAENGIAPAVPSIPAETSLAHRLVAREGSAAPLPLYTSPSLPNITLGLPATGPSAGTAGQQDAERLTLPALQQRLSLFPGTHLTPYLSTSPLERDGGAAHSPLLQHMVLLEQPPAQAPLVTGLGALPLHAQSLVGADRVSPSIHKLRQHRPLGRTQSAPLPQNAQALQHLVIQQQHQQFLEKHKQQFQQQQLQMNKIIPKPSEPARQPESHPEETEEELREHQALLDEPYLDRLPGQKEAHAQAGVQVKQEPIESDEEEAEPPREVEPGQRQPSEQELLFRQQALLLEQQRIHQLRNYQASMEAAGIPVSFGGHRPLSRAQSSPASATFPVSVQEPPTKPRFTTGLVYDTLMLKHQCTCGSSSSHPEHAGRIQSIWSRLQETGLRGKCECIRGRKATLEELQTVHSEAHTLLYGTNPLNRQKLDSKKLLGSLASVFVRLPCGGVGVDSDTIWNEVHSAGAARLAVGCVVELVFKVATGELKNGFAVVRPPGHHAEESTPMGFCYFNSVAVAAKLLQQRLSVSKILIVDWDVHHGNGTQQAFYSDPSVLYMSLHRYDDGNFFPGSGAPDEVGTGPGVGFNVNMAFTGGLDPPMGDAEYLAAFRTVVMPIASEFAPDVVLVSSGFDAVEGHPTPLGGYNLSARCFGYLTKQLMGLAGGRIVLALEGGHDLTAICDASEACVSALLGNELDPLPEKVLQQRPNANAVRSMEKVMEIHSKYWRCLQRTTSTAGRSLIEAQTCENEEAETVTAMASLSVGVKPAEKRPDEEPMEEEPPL
Description for Histone deacetylase 4: Inhibition of human recombinant HDAC4 using Boc-Lys(trifluoroacetyl)-AMC) as fluorogenic substrate incubated for 90 mins by fluorescence based analysis
Description for Histone deacetylase 8: Inhibition of human recombinant HDAC8 using RHKAcKAc as fluorogenic substrate incubated for 90 mins by fluorescence based analysis

As a reminder, the IC50 is the concentration needed to halve the response being measured. As usually defined, the half-life is the time in which the quantity being followed falls by half. As usually defined, the AUC(0-t) is the area under the concentration-time curve up to a stated or last time point. Higher therefore signals more exposure. By Tmax is commonly meant the time at which the peak concentration occurs. On to `O=C(CCCCCCC(=O)Nc1ccccc1)NO` [VORINOSTAT], for which the IC50 with HPBALL was found to be 824 nM. For the same compound, the half-life at 1 h in [1] worked out at 35.9 min. Moreover, in [2], the AUC(0-t) amounted to 619 ng·h/mL. In addition, the half-life in series [3] is 45 min. Besides, in [4], the Tmax came to 4.8 min. Further, the half-life at 6 h in series [5] was 48 min. The compound further showed an AUC(0-t) at 6 h in “in vivo” of 347 ng·h/mL.

For `O=C(CCCCCONC(=O)c1nc(-c2ccccc2F)cs1)NO`, the IC50 was 51 nM in series [6], above 100000 nM on Histone deacetylase 4 and 1290 nM against Histone deacetylase 8.

Regarding `COc1ccccc1OCCNCC(O)COc1cccc2[nH]c3ccccc3c12` (configuration not stated) [CARVEDILOL], the blood plasma ratio in series [7] amounted to 0.76.

For the compound `COc1ccccc1-c1csc(C(=O)NOCCCCCC(=O)NO)n1`, the IC50 in [6] was 26 nM; at Histone deacetylase 4, above 100000 nM; on Histone deacetylase 8, 2160 nM.

For the compound `O=C(CCCCCCNC(=O)c1cnc(N(c2ccccc2)c2ccccc2)nc1)NO` [RICOLINOSTAT], the IC50 was found to be 2580 nM with HPBALL, 2930 nM in the series on K562 and 2190 nM in the series with HL-60.

Consider `O=C(CCCCCONC(=O)c1nc(-c2cc3ccccc3o2)cs1)NO`, for which the IC50 in [6] was 30 nM; on Histone deacetylase 4, above 100000 nM; against Histone deacetylase 8 it was 3680 nM.

As for `O=C(CCCCCONC(=O)c1nc(-c2cccc(F)c2)cs1)NO`, the IC50 was 47 nM in series [6], above 100000 nM at Histone deacetylase 4 and 2320 nM on Histone deacetylase 8.

Regarding `O=C(CCCCCONC(=O)c1nc(-c2ccc(C(F)(F)F)cc2)cs1)NO`, the IC50 in series [6] was 108 nM; on Histone deacetylase 4, above 100000 nM; on Histone deacetylase 8, 4860 nM.

Consider `O=C(CCCCCONC(=O)c1nc(-c2ccc(N3CCCC3)cc2)cs1)NO`, for which the IC50 in [6] was 64 nM; in series [8], 48 nM; on Histone deacetylase 11 it was 36000 nM; on Histone deacetylase 4, above 100000 nM; at Histone deacetylase 8, 4800 nM; at Histone deacetylase 1 it was 12 nM.

Take `O=C(CCCCCONC(=O)c1nc(-c2cccs2)cs1)NO`: the results for the IC50 (in [6]; on Histone deacetylase 4; at Histone deacetylase 8) were 81 nM, above 100000 nM and 2510 nM, respectively.

On to `O=C(CCCCCONC(=O)c1nc(-c2ccc(F)cc2)cs1)NO`, for which the IC50 is 45 nM in series [6], above 100000 nM against Histone deacetylase 4 and 6380 nM against Histone deacetylase 8.

As to `O=C(/C=C/c1cccc(S(=O)(=O)Nc2ccccc2)c1)NO` [BELINOSTAT], the IC50 with HPBALL was 269 nM; in the series on K562, 218 nM; in the series with HL-60 it was 158 nM.

For the compound `O=C(CCCCCONC(=O)c1nc(-c2ccccc2)cs1)NO`, the figures for the IC50 (in series [6]; on Histone deacetylase 4; against Histone deacetylase 8) were 75 nM, above 100000 nM and 4010 nM, respectively.

As to `COc1ccc(-c2csc(C(=O)NOCCCCCC(=O)NO)n2)cc1`, the IC50 in series [6] is 38 nM; in [8], 13 nM; against Histone deacetylase 11 it was 26000 nM; at Histone deacetylase 4, above 100000 nM; against Histone deacetylase 8, 5750 nM; on Histone deacetylase 1 it was 40 nM.

For `O=C(CCCCCONC(=O)c1nc(-c2ccsc2)cs1)NO`, the IC50 was 49 nM in series [6], above 100000 nM against Histone deacetylase 4 and 5410 nM at Histone deacetylase 8.

Consider `COc1cccc(-c2csc(C(=O)NOCCCCCC(=O)NO)n2)c1`, for which the IC50 in [6] is 26 nM; on Histone deacetylase 4, above 100000 nM; on Histone deacetylase 8 it was 5200 nM.

Turning to `Cc1ccc(-c2csc(C(=O)NOCCCCCC(=O)NO)n2)cc1`, the IC50 in series [6] is 64 nM; at Histone deacetylase 4, above 100000 nM; against Histone deacetylase 8 it was 7010 nM.

In the case of `CC(=O)Nc1ccc(C(=O)Nc2ccccc2N)cc1` [TACEDINALINE], the IC50 with HPBALL stood at 4700 nM; with K562 it was 5330 nM; with HL-60, 1580 nM.

The values above are taken from ChEMBL document CHEMBL6083289, “Deciphering the Therapeutic Potential of Novel Pentyloxyamide-Based Class I, IIb HDAC Inhibitors against Therapy-Resistant Leukemia” (J Med Chem, 2024).
